Measurements taken from US20250197374A1, “WEE1 DEGRADING COMPOUNDS AND USES THEREOF” (BRISTOL-MYERS SQUIBB COMPANY, priority 2023, published 2025).
pEC50: −log10 of the molar value.

Legend:
Assay type in all cases: cell-based
MKN45 cells = experiment: MKN45 cell proliferation assay (Cell-Titer-Glo, 120 hr); conditions: for MKN45 Cell Prolif. 120 hr YMin (%): minimal percent of DMSO control observed; for pEC50: Homo sapiens, MKN-45, 120 h, read-out: MKN45 Cell Prolif. 120 hr EC50
Source text: (§1) MKN45 cells were obtained from Celgene internal cell banks and cultured in RPMI complete media (RPMI-1640, 1× Penicillin/Streptomycin, 1× glutamine, 1× Sodium Pyruvate, Non-essential Amino Acids, 10% Fetal Bovine serum, all component from Thermo-Fisher). MDA-MB-231 cells were obtained from the ATCC (HTB-26) and cultured in RPMI-1640 and 10% Fetal Bovine serum; MDA-MB-231 cells were expanded and stored as aliquots in liquid nitrogen in Celgene internal cell banks. Compounds were dispensed into 384-well plates using an HP DE300 compound printer in triplicate with 8 compounds on each plate. Compounds were dispensed into 384-well black clear bottom plates (Corning #3764BC) using an EDC acoustic dispenser at BMS. For each compound, a 10-point dose response was printed at half-log dilutions starting at either 1 uM or 10 uM in triplicate for MKN45 cells and in duplicate for MDA-MB-231 cells. The DMSO concentration was kept constant for a final assay concentration of 0.1% per well assuming 50 ul final media volume. Compound plates were sealed and frozen at −20 C until use.
(§2) For each assay batch, compound plates were thawed and allowed to reach room temperature, and cells were seeded at 400 MKN45 cells per well, or 800 MDA-MB-231 cells per well, in 50 ul media listed above for each cell line. After 120 hours of incubation at 37 C and 5% CO2, cells were lysed by addition of 25 μL of Cell-Titer-Glo Reagent (Promega Corporation, Madison, WI), as per manufacturer's instructions, protected from light, shaken for 45 minutes, and total luminescence read by a Perkin Elmer Envision plate reader. Total luminescence signal is linearly correlated with cell number remaining in the well.
(§3) Luminescence data was processed per plate by subtracting reagent-only “blank” well luminescence from all measured values and calculating a percent of DMSO control value for each treatment well. Then, to determine the half-maximal effective concentration (EC50) values for cell growth inhibition, a four parameter logistic model was fit to the data for each DMSO-normalized compound: Sigmoidal Dose-Response Model: (FIT=(A+((B−A)/1+((C/x)^D)))) where C is the inflection point ([…]), D is the Hill slope, and A and B are the low and high limits of the fit respectively. The lower limit of the fit (value A) is referred to as Ymin-calculated. The minimal percent of DMSO control that is observed in the concentrations tested for each compound is labeled as “Ymin-obs”, and was recorded and reported in the tables. Sigmoidal fit curves were processed and evaluated using Activity Base (IDBS, Alameda, CA) or using Dotmatics (Boston, MA). N/A=not available at the present time.

WEE1 = molecular target: T1, WEE1 (Homo sapiens, UniProt P30291+Q96SW2); experiment: WEE1-ePL degradation assay (293T-LentiX, InCELL Hunter luminescence, 4 hr); conditions: for 293T-LentiX WEE1-ePL Degradation 4 hr YMin (%): lower limit of fit, % of DMSO control signal remaining; for DC50: LentiX-HEK293T cells expressing WEE1-ePL, 4 hr incubation, read-out: 293T-LentiX WEE1-ePL Degradation 4 hr EC50
T1 construct: C-terminal ePL-tagged (DiscoverX, Fremont, CA) full-length WEE1 expression construct; expressed in transfected cells; host or cells: LentiX-HEK293T (Invitrogen), lentivirally transduced; the cells also over-express GSPT1-GN
Summary of the method: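 EC50 comes from a four-parameter logistic fit of ePL luminescence (InCELL Hunter), with DMSO control defining Ymax. Compounds ran as 10-point 3-fold dilutions from 1 or 10 µM for 4 h at 37 °C. Cells were HEK293T-LentiX with ePL-tagged full-length WEE1 and over-expressed Cereblon-resistant GSPT1-GN.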

MDA-MB-231 cells = experiment: MDA-MB-231 cell proliferation assay (Cell-Titer-Glo, 120 hr); conditions: for pEC50: Homo sapiens, MDA-MB-231, 120 h, read-out: MDA-MB 231 Cell Prolif. 120 hr EC50; for MDA-MB 231 Cell Prolif. 120 hr YMin (%): minimal percent of DMSO control observed
Source text: as §1, §2, §3

T1 sequence (P30291 whole entry): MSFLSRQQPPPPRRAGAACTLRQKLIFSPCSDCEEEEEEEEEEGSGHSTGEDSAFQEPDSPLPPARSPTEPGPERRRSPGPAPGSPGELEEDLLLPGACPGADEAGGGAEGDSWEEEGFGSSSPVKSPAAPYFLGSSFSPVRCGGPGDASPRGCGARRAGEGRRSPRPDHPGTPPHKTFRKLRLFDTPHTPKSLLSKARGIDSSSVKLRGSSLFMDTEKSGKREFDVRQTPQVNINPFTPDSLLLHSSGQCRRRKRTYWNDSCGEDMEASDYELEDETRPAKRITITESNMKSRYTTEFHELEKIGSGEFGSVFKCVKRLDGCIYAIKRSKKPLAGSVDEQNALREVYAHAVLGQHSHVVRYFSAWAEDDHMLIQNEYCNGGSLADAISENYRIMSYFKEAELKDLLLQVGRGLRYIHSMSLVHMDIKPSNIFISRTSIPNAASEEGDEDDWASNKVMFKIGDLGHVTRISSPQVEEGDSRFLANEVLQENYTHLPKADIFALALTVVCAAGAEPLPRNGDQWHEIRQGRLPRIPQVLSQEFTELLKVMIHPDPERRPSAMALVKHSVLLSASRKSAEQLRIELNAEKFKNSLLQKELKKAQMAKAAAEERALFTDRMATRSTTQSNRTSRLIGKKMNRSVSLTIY
T1 sequence (Q96SW2 whole entry): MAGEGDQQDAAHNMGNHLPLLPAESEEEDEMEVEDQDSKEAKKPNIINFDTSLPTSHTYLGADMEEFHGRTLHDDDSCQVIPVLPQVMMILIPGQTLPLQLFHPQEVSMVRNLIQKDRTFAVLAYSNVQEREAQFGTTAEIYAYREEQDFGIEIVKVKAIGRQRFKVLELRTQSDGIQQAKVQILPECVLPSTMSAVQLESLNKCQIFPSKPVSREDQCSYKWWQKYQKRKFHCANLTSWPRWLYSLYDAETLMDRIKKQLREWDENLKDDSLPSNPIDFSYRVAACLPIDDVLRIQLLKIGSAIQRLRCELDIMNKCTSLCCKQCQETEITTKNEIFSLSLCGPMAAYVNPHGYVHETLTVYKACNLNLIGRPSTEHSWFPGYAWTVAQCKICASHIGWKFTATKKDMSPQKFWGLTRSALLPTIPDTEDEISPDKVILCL
T1 sequence (Q16531 whole entry partner): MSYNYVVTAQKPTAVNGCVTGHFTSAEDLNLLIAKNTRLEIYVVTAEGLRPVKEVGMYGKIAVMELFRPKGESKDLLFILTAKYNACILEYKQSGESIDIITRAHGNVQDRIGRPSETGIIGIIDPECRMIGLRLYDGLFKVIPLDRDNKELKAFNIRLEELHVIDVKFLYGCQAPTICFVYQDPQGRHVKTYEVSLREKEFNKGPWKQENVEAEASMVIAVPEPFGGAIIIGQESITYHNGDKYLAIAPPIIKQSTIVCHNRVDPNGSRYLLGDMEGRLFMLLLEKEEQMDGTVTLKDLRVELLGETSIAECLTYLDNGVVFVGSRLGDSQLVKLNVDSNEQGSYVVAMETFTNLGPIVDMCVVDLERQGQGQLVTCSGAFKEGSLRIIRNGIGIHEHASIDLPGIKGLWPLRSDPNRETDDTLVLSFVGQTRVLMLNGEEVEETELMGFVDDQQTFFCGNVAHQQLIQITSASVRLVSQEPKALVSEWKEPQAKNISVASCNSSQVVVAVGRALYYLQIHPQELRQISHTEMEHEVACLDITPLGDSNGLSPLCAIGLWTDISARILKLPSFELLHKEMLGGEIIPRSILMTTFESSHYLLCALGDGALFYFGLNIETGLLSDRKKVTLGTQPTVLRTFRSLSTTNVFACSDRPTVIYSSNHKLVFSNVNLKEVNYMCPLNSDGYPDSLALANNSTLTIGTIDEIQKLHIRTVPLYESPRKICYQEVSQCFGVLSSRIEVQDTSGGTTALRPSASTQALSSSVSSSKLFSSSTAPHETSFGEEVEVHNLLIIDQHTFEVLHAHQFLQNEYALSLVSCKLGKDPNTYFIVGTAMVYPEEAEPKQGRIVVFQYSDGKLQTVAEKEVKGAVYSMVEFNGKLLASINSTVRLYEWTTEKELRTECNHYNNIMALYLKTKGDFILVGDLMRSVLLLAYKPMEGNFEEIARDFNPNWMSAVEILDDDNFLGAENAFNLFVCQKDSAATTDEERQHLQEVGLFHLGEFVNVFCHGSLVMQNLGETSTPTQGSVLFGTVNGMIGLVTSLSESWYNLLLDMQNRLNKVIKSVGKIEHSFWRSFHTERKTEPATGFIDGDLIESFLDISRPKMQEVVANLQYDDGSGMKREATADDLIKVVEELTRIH

| Structure (SMILES) | MKN45 Cell Prolif. 120 hr YMin (%) (MKN45 cells) | 293T-LentiX WEE1-ePL Degradation 4 hr YMin (%) (WEE1) | pEC50 (MDA-MB-231 cells) | MDA-MB 231 Cell Prolif. 120 hr YMin (%) (MDA-MB-231 cells) | pEC50 (MKN45 cells) | DC50 (WEE1) |
| --- | --- | --- | --- | --- | --- | --- |
| COC[C@@H]1CN(Cc2cc(F)c3nc(C45CC(C(C)(C)O)(C4)C5)ccc3c2)C[C@H]1Oc1ccc2c(c1)CN([C@H]1CCC(=O)NC1=O)C2=O [Example 56, (3S)-3-(5-{[(3S,4S)-1-({8-fluoro-2-[3-(2-hydroxypropan-2-yl)bicyclo[1.1.1]pentan-1-yl]quinolin-6-yl}methyl)-4-(methoxymethyl)pyrrolidin-3-yl]oxy}-1-oxo-2,3-dihydro-1H-isoindol-2-yl)piperidine-2,6-dione] | 10.0% | 29.9% | 7.72 | 25.5% |  |  |
| COC[C@@H]1CN(Cc2cc(F)c3nc(C(=O)N4CCOCC4)ccc3c2)C[C@H]1Oc1ccc2c(c1)CN([C@H]1CCC(=O)NC1=O)C2=O [Example 106, (3S)-3-(5-{[(3S,4S)-1-{[8-fluoro-2-(morpholine-4-carbonyl)quinolin-6-yl]methyl}-4-(methoxymethyl)pyrrolidin-3-yl]oxy}-1-oxo-2,3-dihydro-1H-isoindol-2-yl)piperidine-2,6-dione] | 11.5% | 29.8% | 7.74 | 50.8% | 7.74 | 4 nM |
| COC[C@@H]1CN(Cc2ccc3nc(N4CCN(C(C)=O)C5(CC5)C4)ncc3c2)C[C@H]1Oc1ccc2c(c1)CN([C@H]1CCC(=O)NC1=O)C2=O [Example 94, (3S)-3-(5-{[(3S,4S)-1-[(2-{4-acetyl-4,7-diazaspiro[2.5]octan-7-yl}quinazolin-6-yl)methyl]-4-(methoxymethyl)pyrrolidin-3-yl]oxy}-1-oxo-2,3-dihydro-1H-isoindol-2-yl)piperidine-2,6-dione] | 8.5% | 26.4% | 7.80 | 16.0% | 8.70 | 1 nM |
| COC[C@@H]1CN(Cc2ccc3nc(C4CCN(C5CN(C)C5)CC4)ccc3c2)C[C@H]1Oc1ccc2c(c1)CN([C@H]1CCC(=O)NC1=O)C2=O [Example 122, (3S)-3-(5-{[(3S,4S)-4-(methoxymethyl)-1-({2-[1-(1-methylazetidin-3-yl)piperidin-4-yl]quinolin-6-yl}methyl)pyrrolidin-3-yl]oxy}-1-oxo-2,3-dihydro-1H-isoindol-2-yl)piperidine-2,6-dione] | 8.5% | 22.0% | 7.64 | 59.3% | 8.70 | 2 nM |
| COC[C@@H]1CN(Cc2cc3ccc(N4CCOCC4)c(F)c3cn2)C[C@H]1Oc1ccc2c(c1)CN([C@H]1CCC(=O)NC1=O)C2=O [Example 48, (3S)-3-(5-{[(3S,4S)-1-{[8-fluoro-7-(morpholin-4-yl)isoquinolin-3-yl]methyl}-4-(methoxymethyl)pyrrolidin-3-yl]oxy}-1-oxo-2,3-dihydro-1H-isoindol-2-yl)piperidine-2,6-dione] | 7.8% | 22.9% | 8.40 | 22.0% | 9.00 |  |
| COC[C@@H]1CN(Cc2cc(F)c3nc(C4CCCOC4)ncc3c2)C[C@H]1Oc1ccc2c(c1)CN([C@H]1CCC(=O)NC1=O)C2=O (relative stereo) [Example 78, rel-(3S)-3-(5-{[(3S,4S)-1-{[8-fluoro-2-(oxan-3-yl)quinazolin-6-yl]methyl}-4-(methoxymethyl)pyrrolidin-3-yl]oxy}-1-oxo-2,3-dihydro-1H-isoindol-2-yl)piperidine-2,6-dione] | 7.7% | 27.1% | 7.57 | 22.5% | 8.40 | 3 nM |
| COC[C@@H]1CN(Cc2cc(F)c3nc(C4CCC(O)CC4)ncc3c2)C[C@H]1Oc1ccc2c(c1)CN([C@H]1CCC(=O)NC1=O)C2=O (relative stereo) [Example 50, rel-(S)-3-(5-(((3S,4S)-1-((8-fluoro-2-(4-hydroxycyclohexyl)quinazolin-6-yl)methyl)-4-(methoxymethyl)pyrrolidin-3-yl)oxy)-1-oxoisoindolin-2-yl)piperidine-2,6-dione] | 8.7% | 19.8% | 7.77 | 19.3% | 8.15 | 3 nM |
| COC[C@@H]1CN(Cc2cc3ccc(N4CCN(CC(F)(F)F)CC4)cc3cn2)C[C@H]1Oc1ccc2c(c1)CN([C@H]1CCC(=O)NC1=O)C2=O [Example 39, (3S)-3-(5-{[(3S,4S)-4-(methoxymethyl)-1-({7-[4-(2,2,2-trifluoroethyl)piperazin-1-yl]isoquinolin-3-yl}methyl)pyrrolidin-3-yl]oxy}-1-oxo-2,3-dihydro-1H-isoindol-2-yl)piperidine-2,6-dione] | 10.3% | 31.6% | 7.60 | 41.6% | 9.00 |  |
| COC[C@@H]1CN(Cc2cc(F)c3nc(C4CN(CC(F)(F)F)C4)ccc3c2)C[C@H]1Oc1ccc2c(c1)CN([C@H]1CCC(=O)NC1=O)C2=O [Example 37, (3S)-3-(5-{[(3S,4S)-1-({8-fluoro-2-[1-(2,2,2-trifluoroethyl)azetidin-3-yl]quinolin-6-yl}methyl)-4-(methoxymethyl)pyrrolidin-3-yl]oxy}-1-oxo-2,3-dihydro-1H-isoindol-2-yl)piperidine-2,6-dione] | 11.0% | 30.1% | 6.91 | 6.3% | 9.00 |  |
| COC[C@@H]1CN(Cc2ccc3ccc(N4CCOCC4)nc3c2F)C[C@H]1Oc1ccc2c(c1)CN([C@H]1CCC(=O)NC1=O)C2=O [Example 105, (3S)-3-(5-{[(3S,4S)-1-{[8-fluoro-2-(morpholin-4-yl)quinolin-7-yl]methyl}-4-(methoxymethyl)pyrrolidin-3-yl]oxy}-1-oxo-2,3-dihydro-1H-isoindol-2-yl)piperidine-2,6-dione] | 83.4% | 40.7% | 6.63 | 91.5% | 7.06 | 1 nM |
| COC[C@@H]1CN(Cc2cc(F)c3cc(N4CCOCC4)cnc3c2)C[C@H]1Oc1ccc2c(c1)CN([C@H]1CCC(=O)NC1=O)C2=O [Example 103, (3S)-3-(5-{[(3S,4S)-1-{[5-fluoro-3-(morpholin-4-yl)quinolin-7-yl]methyl}-4-(methoxymethyl)pyrrolidin-3-yl]oxy}-1-oxo-2,3-dihydro-1H-isoindol-2-yl)piperidine-2,6-dione] | 28.5% | 32.3% | 8.30 | 82.3% | 7.54 | 1 nM |
